In data set [1] the target is Intercellular adhesion molecule 1 (Homo sapiens, UniProt P05362). Description: Inhibition of ICAM1 (unknown origin).
For another data set, the system named is Escherichia coli. The data set can be described thus: Antibacterial activity against Escherichia coli. The data set is classed as functional.
The subject of another data set is Bacillus subtilis. Description: Antibacterial activity against Bacillus subtilis. The data set is classed as functional.
A further data set deals with Staphylococcus aureus. The data set can be described thus: Antibacterial activity against Staphylococcus aureus. Type of data set: functional.
Another data set has as its system Liver. Description: Antioxidant activity in rat liver microsomal membranes assessed as inhibition of Fe(2+)/ascorbate-induced lipid peroxidation. Type of data set: functional, microsomes, microsome.
The nature of data set [2]: Displacement of [3H]-diazepam from benzodiazepine receptor in rat brain membranes after 30 mins. Type of data set: cell membranes, Membrane. (Loss of bound radioactivity is the signal in a displacement assay; it reports binding, not function.)
A further data set deals with SNB-19. Description: Cytotoxicity against human SNB19 cells. The data set is classed as functional, cell-based.
The next data set concerns T47D. The data set can be described thus: Cytotoxicity against human T47D cells. The data set is classed as functional, cell-based.
The next data set deals with C32. The data set can be described thus: Cytotoxicity against human C32 cells. Type of data set: functional, cell-based.
For a further data set, the system named is PBMC. The data set can be described thus: Cytotoxicity in human PBMCs assessed as reduction in cel viability at 50 ug/ml. Type of data set: cell-based.
The subject of a further data set is MCF7. The data set can be described thus: Cytotoxicity against human MCF7 cells. The data set is classed as functional, cell-based.
The subject of the next data set is MDA-MB-231. The data set can be described thus: Cytotoxicity against human MDA-MB-231 cells. The data set is classed as functional, cell-based.

By IC50 is commonly meant the point on the concentration scale where inhibition reaches its midpoint.

SMILES strings stand for the structures. In brackets after ≈: the same amount, converted by molar mass. A value given as a limit tells only on which side of the number the result lay.

Chain of Intercellular adhesion molecule 1 (P05362 whole entry): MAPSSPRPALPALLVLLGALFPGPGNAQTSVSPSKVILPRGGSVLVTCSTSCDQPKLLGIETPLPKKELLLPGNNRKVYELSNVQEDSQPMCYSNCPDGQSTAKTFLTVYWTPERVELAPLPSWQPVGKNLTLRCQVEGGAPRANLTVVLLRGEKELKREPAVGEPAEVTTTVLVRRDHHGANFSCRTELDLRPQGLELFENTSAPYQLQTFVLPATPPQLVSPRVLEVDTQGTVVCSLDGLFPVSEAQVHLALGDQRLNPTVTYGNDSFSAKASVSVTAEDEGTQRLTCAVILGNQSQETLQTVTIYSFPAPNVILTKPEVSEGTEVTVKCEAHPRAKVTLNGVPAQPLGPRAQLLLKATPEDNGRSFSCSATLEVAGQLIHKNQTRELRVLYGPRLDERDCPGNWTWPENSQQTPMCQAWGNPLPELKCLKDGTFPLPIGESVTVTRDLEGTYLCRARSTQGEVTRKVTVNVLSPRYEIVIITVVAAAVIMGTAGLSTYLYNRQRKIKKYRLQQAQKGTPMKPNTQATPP

In [1], `NS(=O)(=O)NC1CCN(Cc2ccc3c(c2)Nc2nccnc2S3)CC1` displayed a half-inhibitory concentration (IC50) of 270 to 1400 nM.

On to `O=[N+]([O-])c1cnc2c(c1)Sc1cc(Cl)ccc1N2`, for which the entries for the “inhibition zone (IZ)” value in the data set on Escherichia coli, in the data set on Bacillus subtilis and in the data set on Staphylococcus aureus were 12 mm, 8 - 12 mm and 8 - 15 mm, respectively.

In the case of `c1cnc2c(n1)Nc1cc(CN3CCCCCCC3)ccc1S2`, in [1], the IC50 fell in the range of 270 to 1400 nM.

Turning to `O=[N+]([O-])c1ccc(N2c3ccncc3Sc3ccncc32)c([N+](=O)[O-])c1`, the IC50 with Liver came to 107 µM.

In the case of `N#Cc1c2c(c[nH]c1=O)Sc1ccc([N+](=O)[O-])cc1N2`, the IC50 in data set [2] fell in the range of 310 to 910 nM.

In turn, `N#Cc1c2c(c[nH]c1=O)Sc1ccc(N)cc1N2` came in with a 50% inhibitory concentration (IC50) in data set [2] of 310 to 910 nM.

With `CCN(C)CC#CCN1c2cnccc2Sc2cccnc21`, the IC50 with SNB-19, in the data set on T47D and with C32 was 26.1 to 27.5 µg/mL (≈ 84.1 to 88.6 µM) each time. Also, the Activity result in the data set with PBMC is recorded as “<= 22%”.

With `O=C(O)CCC1CCN(Cc2ccc3c(c2)Nc2nccnc2S3)CC1`, the half-maximal inhibitory concentration (IC50) in data set [1] came to 470 nM.

`O=S(=O)(NC1CCN(Cc2ccc3c(c2)Nc2nccnc2S3)CC1)N1CCCCC1` gave an IC50 in [1] of 270 to 1400 nM.

Take `CCN(C)CC#CCN1c2ccncc2Sc2ccncc21`: the concentration for half-maximal inhibition (IC50) in the data set on C32 was in the range of 24.8 to 29.2 µg/mL (≈ 79.9 to 94.1 µM).

For `FC(F)(F)c1cccc2c1Sc1cnc3ccccc3c1N2`, the IC50 is 10 µg/mL (≈ 31.4 µM) in the data set with SNB-19 and 9.76 µg/mL (≈ 30.7 µM) in the data set on MCF7.

Regarding `Clc1ccc2c(c1)Sc1cc3ccccc3nc1N2`, the IC50 with Liver lay in the range of 2 to 3 µg/mL.

In the case of `COc1ccc2c(c1)Sc1cc3ccccc3nc1N2`, the IC50 in the data set with Liver fell in the range of 2 to 3 µg/mL.

Turning to `CCCCOc1ccc2c(c1)Nc1c(c[n+](C)c3ccccc13)S2.[Cl-]`, the 50% inhibitory concentration (IC50) was in the range of 0.7 to 11.5 µg/mL in the data set on SNB-19, 0.5 to 7.5 µg/mL with C32 and 0.5 to 12 µg/mL in the data set with MDA-MB-231.

`CN1c2ccncc2Sc2ncccc21` showed a 50% inhibitory concentration (IC50) in the data set on MCF7 of 28.4 to 32.9 µg/mL (≈ 132 to 153 µM).

Regarding `C#CCN1c2ccncc2Sc2ncccc21`, the half-inhibitory concentration (IC50) in the data set with MCF7 fell in the range of 28.4 to 32.9 µg/mL (≈ 119 to 137 µM).

Consider `CN(C)CCCN1c2ccncc2Sc2ncccc21`, for which the IC50 in the data set with C32 is 6.3 µg/mL (≈ 22 µM); in the data set with MCF7 it was 11.3 µg/mL (≈ 39.5 µM).

In the case of `COc1ccc2c(c1)Nc1c(c[n+](C)c3ccccc13)S2.[Cl-]`, the half-maximal inhibitory concentration (IC50) in the data set on SNB-19 was 0.7 to 11.5 µg/mL; in the data set with C32, 0.5 to 7.5 µg/mL; in the data set with MDA-MB-231 it was 0.5 to 12 µg/mL.

`N#Cc1c(O)ncc2c1Nc1cc(Cl)ccc1S2` displayed an IC50 in data set [2] of 310 to 910 nM.

`N#Cc1c2c(c[nH]c1=O)S(=O)(=O)c1c(Cl)cccc1N2` yielded a half-maximal inhibitory concentration (IC50) in data set [2] of 310 to 910 nM.

In the case of `CCN(CC)CCCN1c2ccc3ccccc3c2Sc2cc3ccccc3nc21`, the 50% inhibitory concentration (IC50) in the data set on SNB-19 worked out at 0.98 µg/mL (≈ 2.37 µM); with T47D, 5.9 µg/mL (≈ 14.3 µM); in the data set on C32 it was 0.8 µg/mL (≈ 1.93 µM).

`Cn1c(=O)c2c(c3ccccc31)Nc1ccccc1S2`: the MIC result with Staphylococcus aureus is listed as “>=200 ug”.

In the data set with MCF7, `C=CCN1c2ccncc2Sc2ncccc21` gave an IC50 of 28.4 to 32.9 µg/mL (≈ 118 to 136 µM).

Turning to `CCn1c(=O)c2c(c3ccccc31)Nc1ccccc1S2`, the MIC result in the data set on Staphylococcus aureus was “>=200 ug”.

In the case of `NC(=O)C1CCN(Cc2ccc3c(c2)Nc2nccnc2S3)CC1`, in data set [1], the 50% inhibitory concentration (IC50) lay within 270 to 1400 nM.

In data set [2], `N#Cc1c(O)ncc2c1Nc1ccccc1S2` showed an IC50 of 310 to 910 nM.

The molecule `CCN(CC)CC#CCN1c2ccncc2Sc2ccncc21` gave a 50% inhibitory concentration (IC50) in the data set with C32 of 24.8 to 29.2 µg/mL (≈ 76.4 to 90 µM).

As for `C[n+]1cc2c(c3ccccc31)Nc1ccc(N3CCCCC3)cc1S2.[Cl-]`, the IC50 with SNB-19 fell in the range of 0.7 to 11.5 µg/mL; with C32, 0.5 to 7.5 µg/mL; in the data set with MDA-MB-231 it was 0.5 to 12 µg/mL.

The molecule `CN(C)S(=O)(=O)N1CCN(Cc2ccc3c(c2)Nc2nccnc2S3)CC1` registered a half-inhibitory concentration (IC50) in [1] of 270 to 1400 nM.

Consider `O=[N+]([O-])c1cnc2c(c1)Sc1cc(Br)ccc1N2`, for which the “inhibition zone (IZ)” value in the data set on Escherichia coli is on record as 7 - 12 mm; with Bacillus subtilis, 8 - 12 mm; in the data set with Staphylococcus aureus, 15 mm.

As for `O=c1[nH]c2ccccc2c2c1Sc1ccccc1N2`, the MIC result in the data set on Staphylococcus aureus was “>=200 ug”.

Turning to `O=[N+]([O-])c1cnc2c(c1)Sc1cccc(Br)c1N2`, the results for the “inhibition zone (IZ)” value with Escherichia coli, with Bacillus subtilis and in the data set on Staphylococcus aureus were 7 - 12 mm, 8 - 12 mm and 8 - 15 mm, respectively.

For the molecule `C[n+]1cc2c(c3ccccc31)Nc1cc(OCCN3CCCCC3)ccc1S2.[Cl-]`, the IC50 with SNB-19, with T47D, in the data set with C32 and with MDA-MB-231 was ≤ 3 µg/mL throughout.

In data set [1], `O=C(O)CC1CCN(Cc2ccc3c(c2)Nc2nccnc2S3)CC1` showed an IC50 of 530 nM.

As for `c1cnc2c(n1)Nc1cc(CN3CCCCCC3)ccc1S2`, the concentration for half-maximal inhibition (IC50) in [1] lay within 270 to 1400 nM.

Take `CSc1ccc2c(c1)Sc1cnc3ccccc3c1N2Cc1ccccc1`: the IC50 in the data set with MCF7 was found to be 8.71 µg/mL (≈ 22.5 µM); in the data set with MDA-MB-231 it was 7.59 µg/mL (≈ 19.6 µM).

In [1], `O=C(O)CC1CC2CCC(C1)N(Cc1ccc3c(c1)Nc1nccnc1S3)C2` (configuration not stated) had an IC50 of 420 to 1000 nM.

As to `c1ccc2nc3c(cc2c1)Sc1c(ccc2ccccc12)N3`, in the data set on Liver, the IC50 came to 6 µg/mL.

For the molecule `C/C(=C\CC1CCN(Cc2ccc3c(c2)Nc2nccnc2S3)CC1)C(=O)O`, inhibition in data set [1] was half-maximal at 420 nM (IC50).

For the origin of these results see ChEMBL document CHEMBL4138122, “Azaphenothiazines - promising phenothiazine derivatives. An insight into nomenclature, synthesis, structure elucidation and biological properties” (Eur J Med Chem, 2017).
